Assays:
Mus musculus [1] = species on record: Mus musculus; test: Acute toxicity against Mus musculus Swiss albino (mouse) assessed as mortality after 48 hr; type: organism-based; settings: in vivo
Mus musculus [2] = test: Anti-inflammatory activity in carrageenan-induced Mus musculus Swiss albino (mouse) paw edema model assessed as inhibition of paw edema at 100 mg/kg, sc administered 30 min prior to carrageenan injection measured after 360 min; type: functional; settings: route subcutaneous
MCF7 [3] = test: Anticancer activity against Homo sapiens (human) MCF7 cells assessed as cell viability at 50 uM after 24 hr by MTT assay (reference value: 100 +/-2.74%); type: functional; settings: MCF7, 24 h, read-out: Activity
HL-60 [4] = test: Anticancer activity against Homo sapiens (human) HL60 cells assessed as cell viability at 50 uM after 24 hr by MTT assay (reference value: 100 +/-3.55%); type: functional; settings: HL-60, 24 h, read-out: Activity
Mus musculus [5] = test: Anti-inflammatory activity in carrageenan-induced Mus musculus Swiss albino (mouse) paw edema model assessed as inhibition of paw edema at 100 mg/kg, sc administered 30 min prior to carrageenan injection measured after 270 min; type: functional; settings: route subcutaneous
MDA-MB-231 [6] = test: Anticancer activity against Homo sapiens (human) estrogen-independent MDA-MB-231 cells assessed as cell viability at 50 uM after 24 hr by MTT assay (reference value: 100 +/-7.08%); type: functional; settings: MDA-MB-231, 24 h, read-out: Activity
MDA-MB-231 [7] = test: Anticancer activity against Homo sapiens (human) estrogen-independent MDA-MB-231 cells assessed as cell viability at 50 uM after 48 hr by MTT assay (reference value: 100 +/-3.71%); type: functional; settings: MDA-MB-231, 48 h, read-out: Activity
Mus musculus [8] = test: Anti-inflammatory activity in carrageenan-induced Mus musculus Swiss albino (mouse) paw edema model assessed as paw swelling at 100 mg/kg, sc administered 30 min prior to carrageenan injection measured after 360 min (reference value: 77.0 +/-3.0 x10'-2 mm); type: functional; settings: route subcutaneous
Mus musculus [9] = test: Anti-inflammatory activity in carrageenan-induced Mus musculus Swiss albino (mouse) paw edema model assessed as paw swelling at 100 mg/kg, sc administered 30 min prior to carrageenan injection measured after 270 min (rvb = 75.0 +/-3.0 x10'-2 mm); type: functional; settings: route subcutaneous
Mus musculus [10] = test: Analgesic activity in Mus musculus Swiss albino (mouse) assessed as inhibition of p-benzoquinone-induced abdominal writhing at 100 mg/kg, sc administered 30 min prior to PBQ injection measured after 5 min for 15 min; type: functional, Abdomen; design: scale not given: the % may be the effect or the level left; settings: route subcutaneous
HeLa [11] = test: Anticancer activity against Homo sapiens (human) HeLa cells assessed as cell viability at 50 uM after 48 hr by MTT assay (reference value: 100 +/-3.8%); type: functional; settings: read-out: Activity
MCF7 [12] = test: Anticancer activity against Homo sapiens (human) MCF7 cells assessed as cell viability at 50 uM after 48 hr by MTT assay (100 +/-5.08%); type: functional; settings: MCF7, 48 h, read-out: Activity
Mus musculus [13] = test: Anti-inflammatory activity in carrageenan-induced Mus musculus Swiss albino (mouse) paw edema model assessed as paw swelling at 100 mg/kg, sc administered 30 min prior to carrageenan injection measured after 180 min (reference value: 51.0 +/-3.0 x10'-2 mm); type: functional; settings: route subcutaneous
Mus musculus [14] = test: Anti-inflammatory activity in carrageenan-induced Mus musculus Swiss albino (mouse) paw edema model assessed as inhibition of paw edema at 100 mg/kg, sc administered 30 min prior to carrageenan injection measured after 180 min; type: functional; settings: route subcutaneous
Mus musculus [15] = test: Anti-inflammatory activity in carrageenan-induced Mus musculus Swiss albino (mouse) paw edema model assessed as paw swelling at 100 mg/kg, sc administered 30 min prior to carrageenan injection measured after 90 min (reference value: 38.0 +/-2.0 x10'-2 mm); type: functional; settings: route subcutaneous
Mus musculus [16] = species on record: Mus musculus; test: Acute toxicity against Mus musculus Swiss albino (mouse) assessed as morbidity after 48 hr; type: organism-based; settings: in vivo
Raji [17] = test: Anticancer activity against Homo sapiens (human) Raji cells assessed as cell viability at 50 uM after 48 hr by MTT assay (reference value: 100 +/-4.26%); type: functional; settings: read-out: Activity
HeLa [18] = test: Anticancer activity against Homo sapiens (human) HeLa cells assessed as cell viability at 50 uM after 24 hr by MTT assay (reference value: 100 +/-4.13%); type: functional; settings: read-out: Activity
HL-60 [19] = test: Anticancer activity against Homo sapiens (human) HL60 cells assessed as cell viability at 50 uM after 48 hr by MTT assay (reference value: 100 +/-8.41%); type: functional; settings: HL-60, 48 h, read-out: Activity
Raji [20] = test: Anticancer activity against Homo sapiens (human) Raji cells assessed as cell viability at 50 uM after 24 hr by MTT assay (reference value: 100 +/-5.02%); type: functional; settings: read-out: Activity

Cc1ccc(-c2cc(C(=O)Oc3ccc(C(C)C)cc3)n(Cc3ccccc3)n2)cc1
Activity (Mus musculus [1]): Non-toxic
inhibition in vivo at 100 mg/kg (Mus musculus [2]): 31.5%
viability at 50 µM (MCF7 [3]): 80.3%
viability at 50 µM (HL-60 [4]): 115%
inhibition in vivo at 100 mg/kg (Mus musculus [5]): 29%
viability at 50 µM (MDA-MB-231 [6]): 71.9%
viability at 50 µM (MDA-MB-231 [7]): 50.2%
Activity (Mus musculus [8]): 53 ×10⁻² mm
Activity (Mus musculus [9]): 53 ×10⁻² mm
Activity (Mus musculus [10]): 33%
viability at 50 µM (HeLa [11]): 69.7%
viability at 50 µM (MCF7 [12]): 90.5%
Activity (Mus musculus [13]): 39 ×10⁻² mm
inhibition in vivo at 100 mg/kg (Mus musculus [14]): 24%
Activity (Mus musculus [15]): 38.3 ×10⁻² mm
Activity (Mus musculus [16]): Non-toxic
viability at 50 µM (Raji [17]): 94.2%
viability at 50 µM (HeLa [18]): 87.2%
viability at 50 µM (HL-60 [19]): 126%
viability at 50 µM (Raji [20]): 105%

CCCCCCCOc1ccc(OC(=O)c2cc(-c3ccc(C)cc3)nn2Cc2ccccc2)cc1
Activity (Mus musculus [1]): Non-toxic
viability at 50 µM (MCF7 [3]): 100%
viability at 50 µM (HL-60 [4]): 118%
inhibition in vivo at 100 mg/kg (Mus musculus [5]): 10%
viability at 50 µM (MDA-MB-231 [6]): 115%
viability at 50 µM (MDA-MB-231 [7]): 63.2%
Activity (Mus musculus [8]): 80 ×10⁻² mm
Activity (Mus musculus [9]): 68 ×10⁻² mm
viability at 50 µM (HeLa [11]): 85.3%
viability at 50 µM (MCF7 [12]): 97.6%
Activity (Mus musculus [13]): 47 ×10⁻² mm
inhibition in vivo at 100 mg/kg (Mus musculus [14]): 9%
Activity (Mus musculus [15]): 42.5 ×10⁻² mm
Activity (Mus musculus [16]): Non-toxic
viability at 50 µM (Raji [17]): 84.3%
viability at 50 µM (HeLa [18]): 109%
viability at 50 µM (HL-60 [19]): 108%
viability at 50 µM (Raji [20]): 76.3%

Cc1ccc(-c2cc(C(=O)Oc3ccc(Oc4ccc(C(F)(F)F)cc4)cc3)n(Cc3ccccc3)n2)cc1
Activity (Mus musculus [1]): Non-toxic
inhibition in vivo at 100 mg/kg (Mus musculus [2]): 14.1%
viability at 50 µM (MCF7 [3]): 63.6%
viability at 50 µM (HL-60 [4]): 114%
inhibition in vivo at 100 mg/kg (Mus musculus [5]): 22.2%
viability at 50 µM (MDA-MB-231 [6]): 75.5%
viability at 50 µM (MDA-MB-231 [7]): 50.3%
Activity (Mus musculus [8]): 66 ×10⁻² mm
Activity (Mus musculus [9]): 58 ×10⁻² mm
Activity (Mus musculus [10]): 56.9%
viability at 50 µM (HeLa [11]): 77.4%
viability at 50 µM (MCF7 [12]): 107%
Activity (Mus musculus [13]): 43 ×10⁻² mm
inhibition in vivo at 100 mg/kg (Mus musculus [14]): 17%
Activity (Mus musculus [15]): 40 ×10⁻² mm
Activity (Mus musculus [16]): Non-toxic
viability at 50 µM (Raji [17]): 121%
viability at 50 µM (HeLa [18]): 89.1%
viability at 50 µM (HL-60 [19]): 86.3%
viability at 50 µM (Raji [20]): 111%

CCOC(=O)C1CCN(C(=O)c2cc(-c3ccc(C)cc3)n(Cc3ccccc3)n2)CC1
Activity (Mus musculus [1]): Non-toxic
inhibition in vivo at 100 mg/kg (Mus musculus [2]): 59.8%
viability at 50 µM (MCF7 [3]): 77.8%
viability at 50 µM (HL-60 [4]): 88.2%
inhibition in vivo at 100 mg/kg (Mus musculus [5]): 57.8%
viability at 50 µM (MDA-MB-231 [6]): 121%
viability at 50 µM (MDA-MB-231 [7]): 71.8%
Activity (Mus musculus [8]): 31 ×10⁻² mm
Activity (Mus musculus [9]): 32 ×10⁻² mm
Activity (Mus musculus [10]): 83.2%
viability at 50 µM (HeLa [11]): 47.1%
viability at 50 µM (MCF7 [12]): 94.5%
Activity (Mus musculus [13]): 44 ×10⁻² mm
inhibition in vivo at 100 mg/kg (Mus musculus [14]): 13.9%
Activity (Mus musculus [15]): 40 ×10⁻² mm
Activity (Mus musculus [16]): Non-toxic
viability at 50 µM (Raji [17]): 41.6%
viability at 50 µM (HeLa [18]): 66.4%
viability at 50 µM (HL-60 [19]): 78.8%
viability at 50 µM (Raji [20]): 56.5%

Cc1ccc(-c2cc(C(=O)N3CCN(Cc4ccc(C(C)C)cc4)CC3)n(Cc3ccccc3)n2)cc1
Activity (Mus musculus [1]): Non-toxic
inhibition in vivo at 100 mg/kg (Mus musculus [2]): 30.4%
viability at 50 µM (MCF7 [3]): 94.4%
viability at 50 µM (HL-60 [4]): 128%
inhibition in vivo at 100 mg/kg (Mus musculus [5]): 26.7%
viability at 50 µM (MDA-MB-231 [6]): 74%
viability at 50 µM (MDA-MB-231 [7]): 51%
Activity (Mus musculus [8]): 53 ×10⁻² mm
Activity (Mus musculus [9]): 55 ×10⁻² mm
viability at 50 µM (HeLa [11]): 60.6%
viability at 50 µM (MCF7 [12]): 66.6%
Activity (Mus musculus [13]): 49 ×10⁻² mm
inhibition in vivo at 100 mg/kg (Mus musculus [14]): 4.1%
Activity (Mus musculus [15]): 44.2 ×10⁻² mm
Activity (Mus musculus [16]): Non-toxic
viability at 50 µM (Raji [17]): 109%
viability at 50 µM (HeLa [18]): 84.8%
viability at 50 µM (HL-60 [19]): 104%
viability at 50 µM (Raji [20]): 101%

CC(=O)Oc1ccccc1C(=O)O [ASPIRIN]
Activity (Mus musculus [10]): 68.9%

— ChEMBL document CHEMBL3045001, “Synthesis and evaluation of analgesic, anti-inflammatory, and anticancer activities of new pyrazole-3(5)-carboxylic acid derivatives” (Med Chem Res, 2013)
